# Data published in patent publication US20240391931A1 (Bristol-Myers Squibb Company, priority 2021, published 2024).
# Key:
# [1] = biological target: T1, HER2 (Homo sapiens, UniProt P04626); experiment: HER2 occupancy assay in BT474 cells; assay type: cell-based; conditions: concentration at which 50% of HER2 is irreversible bound, read-out: BT474 HER2 Occ
# T1 construct: BT474 and N87 cell lines which endogenously overexpress the HER2 wildtype (WT) protein; endogenous in cells; host or cells: BT474, N87
# T1 sequence (P04626 23-1255): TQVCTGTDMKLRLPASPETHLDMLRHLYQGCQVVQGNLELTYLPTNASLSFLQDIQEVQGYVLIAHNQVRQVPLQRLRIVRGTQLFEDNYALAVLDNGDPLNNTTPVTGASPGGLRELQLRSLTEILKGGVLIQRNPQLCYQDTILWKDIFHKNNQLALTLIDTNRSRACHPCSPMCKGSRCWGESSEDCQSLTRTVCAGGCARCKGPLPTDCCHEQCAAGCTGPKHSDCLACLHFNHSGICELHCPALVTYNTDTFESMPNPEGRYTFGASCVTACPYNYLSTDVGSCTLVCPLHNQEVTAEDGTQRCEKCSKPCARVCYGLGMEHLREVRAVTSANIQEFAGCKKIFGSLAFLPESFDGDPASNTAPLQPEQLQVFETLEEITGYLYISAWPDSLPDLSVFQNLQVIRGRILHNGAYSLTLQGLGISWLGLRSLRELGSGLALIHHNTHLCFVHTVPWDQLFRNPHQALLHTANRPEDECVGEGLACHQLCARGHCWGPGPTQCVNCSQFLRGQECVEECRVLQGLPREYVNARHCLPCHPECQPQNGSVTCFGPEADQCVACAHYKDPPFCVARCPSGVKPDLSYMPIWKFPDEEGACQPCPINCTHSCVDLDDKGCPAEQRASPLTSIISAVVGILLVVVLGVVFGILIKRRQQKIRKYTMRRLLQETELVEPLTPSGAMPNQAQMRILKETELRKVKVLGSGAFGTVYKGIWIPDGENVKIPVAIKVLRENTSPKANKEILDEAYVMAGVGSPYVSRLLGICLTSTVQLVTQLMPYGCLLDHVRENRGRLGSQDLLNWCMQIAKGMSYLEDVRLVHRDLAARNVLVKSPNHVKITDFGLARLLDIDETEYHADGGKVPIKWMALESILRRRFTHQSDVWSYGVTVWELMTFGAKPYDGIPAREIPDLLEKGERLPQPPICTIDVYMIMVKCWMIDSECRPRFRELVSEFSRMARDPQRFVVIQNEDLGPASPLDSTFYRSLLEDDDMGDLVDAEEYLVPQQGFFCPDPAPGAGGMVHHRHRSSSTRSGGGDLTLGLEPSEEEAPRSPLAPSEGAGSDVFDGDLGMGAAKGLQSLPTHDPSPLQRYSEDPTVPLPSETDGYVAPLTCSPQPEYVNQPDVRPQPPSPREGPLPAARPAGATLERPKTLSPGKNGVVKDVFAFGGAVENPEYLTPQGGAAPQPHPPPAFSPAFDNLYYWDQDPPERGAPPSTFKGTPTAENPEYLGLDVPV
# Experimental: In order to assess free HER2 protein, a biotinylated probe was utilized. BT474, N87, and Ba/F3-HER2YVMA cells were treated with test compound as described for HER2 signaling. After compound treatment, cells were washed three times with cold phosphate buffer saline (PBS, Life Technologies, Carlsbad, CA), and lysed in modified occupancy lysis buffer prepared with an irreversible biotinylated tool compound (1 μM) in 25 mM Tris pH 7.5, 150 mM NaCl, 1% Triton, and supplemented with cOmplete, EDTA-free Protease inhibitor cocktail (Roche), Phosphatase Inhibitor Cocktails 2 and 3 (Sigma-Aldrich), and 1 mM PMSF (Sigma-Aldrich).
# To determine % occupancy, lysates were loaded into duplicate plates of the phospho (Tyr1248)/total ErbB2 whole cell lysate MSD kit (Meso-Scale Discovery) and incubated overnight. Plates were washed and incubation with either HER2-sulfoTag (1:50, Meso Scale Discovery) or Strep-Sulfo Tag (1:1000, Meso Scale Discovery), for detection of […]. A standard curve of untreated cells in serial dilution was included in each plate to independently fit streptavidin (Free HER2) and total HER2 MSD signals; non-specific signal (BSA control spots) was subtracted from each well. Free HER2 was then normalized by total HER2 for each sample. The results are reported as % DMSO control. The normalized data was fitted using a sigmoidal curve analysis program (Graph Pad Prism version 6) with variable Hill slope to determine EC50 values. The results are provided in Table 4, under columns titled “BT474-HER2 Occ”, “N87-HER2 Occ”, and “Ba/F3 YVMA-HER2 Occ”. HER2 Occ is the concentration of test compound at which 50% of HER2 is irreversible bound.
# [2] = biological target: HER2YVMA (Homo sapiens, UniProt P04626, INS775YVMA); experiment: HER2 signaling (pHER2) in BEAS2B-HER2YVMA cells; assay type: cell-based; parameters: expressed in transfected cells; host or cells: HEK293 (pool), Ba/F3 (clones), BEAS2B (clones); lentiviral vector pCDH-CMV-MCS-EF1-Neo; conditions: read-out: BEAS2B YVMA pHER2 EC50
# Chain of HER2YVMA (P04626 with tags, fused parts or gaps INS775YVMA): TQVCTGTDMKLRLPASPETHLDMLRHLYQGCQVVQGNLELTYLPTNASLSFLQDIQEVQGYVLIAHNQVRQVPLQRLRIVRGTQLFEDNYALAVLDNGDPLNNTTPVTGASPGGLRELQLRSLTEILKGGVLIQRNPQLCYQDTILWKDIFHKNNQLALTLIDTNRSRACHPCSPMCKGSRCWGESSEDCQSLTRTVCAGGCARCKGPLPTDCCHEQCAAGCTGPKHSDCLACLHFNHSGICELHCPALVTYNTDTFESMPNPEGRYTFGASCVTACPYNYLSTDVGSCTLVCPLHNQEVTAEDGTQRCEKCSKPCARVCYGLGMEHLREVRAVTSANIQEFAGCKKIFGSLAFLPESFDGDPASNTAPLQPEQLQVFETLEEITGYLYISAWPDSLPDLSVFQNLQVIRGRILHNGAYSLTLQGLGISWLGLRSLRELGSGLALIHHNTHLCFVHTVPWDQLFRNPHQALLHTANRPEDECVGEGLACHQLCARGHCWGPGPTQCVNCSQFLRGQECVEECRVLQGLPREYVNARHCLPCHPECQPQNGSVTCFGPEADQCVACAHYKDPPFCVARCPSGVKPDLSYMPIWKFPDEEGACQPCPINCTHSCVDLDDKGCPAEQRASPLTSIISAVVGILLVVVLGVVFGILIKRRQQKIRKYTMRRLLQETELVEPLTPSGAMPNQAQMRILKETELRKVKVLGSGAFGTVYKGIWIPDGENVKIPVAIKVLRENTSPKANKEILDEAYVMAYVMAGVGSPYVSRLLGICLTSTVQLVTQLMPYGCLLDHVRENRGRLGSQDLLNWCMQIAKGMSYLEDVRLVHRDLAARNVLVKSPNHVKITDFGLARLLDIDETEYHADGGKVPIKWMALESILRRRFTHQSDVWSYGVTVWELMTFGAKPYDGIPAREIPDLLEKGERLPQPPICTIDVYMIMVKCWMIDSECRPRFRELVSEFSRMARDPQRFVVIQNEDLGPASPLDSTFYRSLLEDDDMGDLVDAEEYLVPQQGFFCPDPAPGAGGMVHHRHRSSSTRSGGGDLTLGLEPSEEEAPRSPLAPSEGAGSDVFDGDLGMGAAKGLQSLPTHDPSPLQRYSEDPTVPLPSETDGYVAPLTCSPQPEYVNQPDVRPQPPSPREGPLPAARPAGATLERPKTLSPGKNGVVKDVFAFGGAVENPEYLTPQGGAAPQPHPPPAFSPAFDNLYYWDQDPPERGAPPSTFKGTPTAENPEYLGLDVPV
# Experimental: Cell culture, plasmid cloning, and lentiviral transduction were carried out according to standard procedures. The Human HER2 cDNA construct in pCMV6-Entry for the HER2 wildtype (WT) expression was obtained from Origene. The HER2 cDNA including the 12-nucleotide insertion corresponding to YVMA insertion (HER2YVMA) was codon optimized, synthesized and cloned by GenScript (Piscataway, NJ) in pcDNA3.1. The lentiviral constructs expressing HER2YVMA and HER2 WT were sub-cloned using PCR at System Biosciences (SBI, Mountainview, CA) into lentiviral vectors pCDH-CMV-MCS-EF1-Neo and lentiviral particles were generated.
# Engineered lines expressing HER2YVMA and HER2 WT were prepared in HEK293 (human embryonic kidney cells), Ba/F3 (Interleukin 3 (IL3)-dependent murine pro B cell line), and BEAS2B (primary immortalized human bronchial epithelial cell line). […]
# HER2 signaling was assessed in BT474 and N87 cell lines which endogenously overexpress the HER2 wildtype (WT) protein, in NCI-H1781 cells which endogenously expresses a HER2 mutant protein containing a VC insertion in the kinase domain (HER2VC or G776delinsVC), and in engineered cell lines transduced to express the Her2 mutant protein containing the YVMA insertion (Hek293-HER2YVMA and BEAS2B-HER2YVMA). […]
# HER2 signaling was evaluated using phospho (Tyr1248)/total ErbB2 whole cell lysate MSD plates (Meso-Scale Discovery, Gaithersburg, MD). […]
Compound,EC50 [1] [nM],EC50 [2] [nM]
"Cc1ccc(Oc2ccc(Nc3ncnc4sc5c(c34)CCN(C(=O)/C=C/CN(C)C)C5)cc2C)cn1 [Compound 8, (E)-4-(Dimethylamino)-1-(4-((3-methyl-4-((6-methylpyridin-3-yl)oxy)phenyl)amino)-5,6-dihydropyrido[4′,3′:4,5]thieno[2,3-d]pyrimidin-7(8H)-yl)but-2-en-1-one]",< 100,< 100
Cc1cc(Nc2ncnc3sc4c(c23)CCN(C(=O)/C=C/CN2CCOCC2)C4)ccc1Oc1ccc2ncnn2c1 [Compound 12],< 100,–
